Laboratory results as given in US20240180898A1, “USE OF AMINOTHIAZOLE DERIVATIVE IN TREATMENT OF IMMUNE INFLAMMATION” (INNAMUNE PHARMACEUTICAL CO. LTD., priority 2021, published 2024).

Key:
Assay type in all cases: in vivo, mouse
allergic rhinitis model = assay: OVA allergic rhinitis (AR) model
Experimental: To establish a model of AR, mice were injected intraperitoneally with 25 μg ovalbumin (OVA) and 2 mg aluminum hydroxide on days 0, 7, and 14 to promote primary sensitization. One week after the primary sensitization, the secondary immunization was built. Mice were intranasally challenged with 3% OVA daily from 21 to 35 days. Animals were divided into three groups: Sham group, AR group and AR+TJ-5 group. After 35 days of OVA administration, the number of mice rubbing and sneezing within 10 min was recorded. Nasal lavage fluid was collected 12 h after OVA treatment under anesthesia.

APP/PS1 transgenic mice = assay: Alzheimer's disease model, APP/PS1 transgenic mice
Experimental: Preparation and grouping of Alzheimer's disease mouse models:
The experiment is divided into three groups, namely:
Drug group (APP/PS1+INNA1605 group): APP/PSI transgenic mice were given INNA1605 at a dose of 50 mg/Kg/day (twice a day, 25 mg/Kg each time, intraperitoneal injection once, gavage once);
Model group (APP/PSI group): APP/PSI transgenic mice were given an equal dose of solvent (ddH2O);
Control group: C57BL/6 mice were given an equal dose of solvent (ddH2O).
At 9 months of age, Morris water maze test was conducted to evaluate the spatial learning and memory abilities of APP/PSI mice. After the behavioral experiment was completed, pentobarbital sodium (100 mg/kg) was injected into the abdominal cavity for deep anesthesia. After fully exposing the heart and aorta through thoracotomy, a 20 ml syringe was inserted into the aorta with an infusion needle from the apex of the heart. The needle was fixed and the right atrium was cut open. 30 ml of physiological saline at 4° C. was perfused through the aorta until most of the blood flowed out. The hippocampus and cortical tissue were carefully and quickly separated and stored at −80° C.for subsequent biochemical analysis. The remaining mice were first perfused with 30 ml of 4° C. physiological saline, followed by 30 ml of pre-cooled 4% paraformaldehyde. Then, the whole brain was removed and fixed with 4% paraformaldehyde for another 48 hours. After dehydration, transparency, paraffin embedding, and sectioning, immunohistochemical analysis was performed.

skin wound = assay: full-thickness dorsal skin wound model
Description: The mice were anesthetized with isoflurane, and 1.5×0.5 cm full-thickness defects were created on their dorsal skin. Animals were divided into three groups: Sham group, Vehicle group and TJ-5 group. After 1 week, mice were sacrificed and wound tissue was harvested for analysis.

[1] = immunohistochemistry, vs model group

## O=C(CCN1CCN(Cc2ccccc2)CC1)Nc1nc(-c2ccccc2)cs1 [INNA1605, 3-(4-benzylpiperazine-1-yl)-N-(4-phenylthiazole-2-yl) propionamide]
Allergic rhinitis model; mouse, in vivo
  levels of IL-4, IL-1β, IL-18 and TNF-α in nasal mucosa: decreased
Allergic rhinitis model; within 10 min after 35 days of OVA
  sneezing and nasal rubbing: relieved these symptoms
APP/PS1 transgenic mice; 50 mg/Kg/day, 9 months of age
  memory (Morris water maze): better memory than APP/PS1 transgenic mice treated with only ddH2O
APP/PS1 transgenic mice; [1]
  Iba-1 positive microglia (whole brain, cortex, hippocampus): significantly reduced compared to the model group
  brain Aβ deposition (whole brain, cortex, hippocampus): significantly less
Skin wound; FIG. 42
  skin scar formation: prevents skin scar formation
Skin wound; after 1 week, vs untreated
  levels of IL-1β, IL-6, TNF-α, G-CSF, Col I, and α-SMA mRNAs in wound tissue: significantly lower
Skin wound; vs vehicle
  wound area: significant decrease in wound area compared to the vehicle
